This passage reports Ki results from patent US7329652B2, “Diaminotriazole compounds useful as protein kinase inhibitors” (Vertex Pharamaceuticals Incorporated, priority 2004, dated 2008).

Structures are written as SMILES. Read-outs that look alike come from different tables or passages of the source. Where only a bound is given, the exact number is not on record here.

One assay concerns the target T1, JAK3 (Homo sapiens, UniProt P52333).
T1 sequence (P52333 1-1124): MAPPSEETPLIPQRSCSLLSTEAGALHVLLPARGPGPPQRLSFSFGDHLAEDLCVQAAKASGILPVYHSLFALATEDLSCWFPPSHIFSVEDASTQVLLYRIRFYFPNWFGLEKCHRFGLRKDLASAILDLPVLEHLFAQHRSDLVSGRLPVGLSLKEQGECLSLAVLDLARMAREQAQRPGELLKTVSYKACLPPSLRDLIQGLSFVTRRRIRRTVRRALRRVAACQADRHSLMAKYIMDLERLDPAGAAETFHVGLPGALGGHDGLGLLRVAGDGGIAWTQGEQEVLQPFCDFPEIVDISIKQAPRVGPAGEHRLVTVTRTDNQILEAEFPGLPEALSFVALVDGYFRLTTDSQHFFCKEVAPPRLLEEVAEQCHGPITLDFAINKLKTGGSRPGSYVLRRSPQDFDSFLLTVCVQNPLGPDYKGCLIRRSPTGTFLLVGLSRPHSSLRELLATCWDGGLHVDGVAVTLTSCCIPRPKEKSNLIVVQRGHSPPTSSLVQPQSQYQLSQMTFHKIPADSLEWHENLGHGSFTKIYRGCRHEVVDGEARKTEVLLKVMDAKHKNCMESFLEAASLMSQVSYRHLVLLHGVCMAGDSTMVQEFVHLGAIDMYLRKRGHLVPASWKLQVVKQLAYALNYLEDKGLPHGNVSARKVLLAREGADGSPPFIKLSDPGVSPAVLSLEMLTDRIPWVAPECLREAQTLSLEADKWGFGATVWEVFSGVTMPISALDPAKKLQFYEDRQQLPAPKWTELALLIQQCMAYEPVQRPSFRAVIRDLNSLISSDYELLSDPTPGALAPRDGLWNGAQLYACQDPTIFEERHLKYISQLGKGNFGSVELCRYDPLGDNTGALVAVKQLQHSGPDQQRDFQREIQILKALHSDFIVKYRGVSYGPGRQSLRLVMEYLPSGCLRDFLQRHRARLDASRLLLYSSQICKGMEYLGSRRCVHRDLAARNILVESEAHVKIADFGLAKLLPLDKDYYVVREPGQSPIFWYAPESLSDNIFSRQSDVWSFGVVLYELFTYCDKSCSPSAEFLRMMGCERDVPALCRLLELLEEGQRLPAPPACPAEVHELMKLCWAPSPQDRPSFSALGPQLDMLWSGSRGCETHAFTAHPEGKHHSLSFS
Description: JAK3 inhibition assay (radiometric 33P filter assay). It is filed as biochemical. Put shortly: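 Final conditions were 1 nM JAK3, 5 μM ATP (200 uCi/μmole) and 1 μM poly(Glu)4Tyr in 100 mM HEPES pH 7.4, 10 mM MgCl2, 25 mM NaCl, 1 mM DTT and 0.01% BSA. After 20 min at 25 °C the reaction was stopped with TCA. 33P incorporation was counted after glass-fibre filtration.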

The target of another assay is JAK-2 enzyme (Homo sapiens, UniProt O60674). Nature of the assay: JAK2 inhibition assay (radiometric 33P filter assay). It is filed as biochemical. The gist of the method: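 JAK-2 enzyme in 100 mM HEPES pH 7.4, 1 mM DTT, 10 mM MgCl2, 25 mM NaCl, 0.01% BSA, with final 12 μM [33P]ATP and 15 μM poly(Glu)4Tyr. Reactions ran 20 min at 25 °C and were stopped with TCA. 33P incorporation was counted after glass-fibre filtration.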
JAK-2 enzyme, sequence (O60674 whole entry, species assumed): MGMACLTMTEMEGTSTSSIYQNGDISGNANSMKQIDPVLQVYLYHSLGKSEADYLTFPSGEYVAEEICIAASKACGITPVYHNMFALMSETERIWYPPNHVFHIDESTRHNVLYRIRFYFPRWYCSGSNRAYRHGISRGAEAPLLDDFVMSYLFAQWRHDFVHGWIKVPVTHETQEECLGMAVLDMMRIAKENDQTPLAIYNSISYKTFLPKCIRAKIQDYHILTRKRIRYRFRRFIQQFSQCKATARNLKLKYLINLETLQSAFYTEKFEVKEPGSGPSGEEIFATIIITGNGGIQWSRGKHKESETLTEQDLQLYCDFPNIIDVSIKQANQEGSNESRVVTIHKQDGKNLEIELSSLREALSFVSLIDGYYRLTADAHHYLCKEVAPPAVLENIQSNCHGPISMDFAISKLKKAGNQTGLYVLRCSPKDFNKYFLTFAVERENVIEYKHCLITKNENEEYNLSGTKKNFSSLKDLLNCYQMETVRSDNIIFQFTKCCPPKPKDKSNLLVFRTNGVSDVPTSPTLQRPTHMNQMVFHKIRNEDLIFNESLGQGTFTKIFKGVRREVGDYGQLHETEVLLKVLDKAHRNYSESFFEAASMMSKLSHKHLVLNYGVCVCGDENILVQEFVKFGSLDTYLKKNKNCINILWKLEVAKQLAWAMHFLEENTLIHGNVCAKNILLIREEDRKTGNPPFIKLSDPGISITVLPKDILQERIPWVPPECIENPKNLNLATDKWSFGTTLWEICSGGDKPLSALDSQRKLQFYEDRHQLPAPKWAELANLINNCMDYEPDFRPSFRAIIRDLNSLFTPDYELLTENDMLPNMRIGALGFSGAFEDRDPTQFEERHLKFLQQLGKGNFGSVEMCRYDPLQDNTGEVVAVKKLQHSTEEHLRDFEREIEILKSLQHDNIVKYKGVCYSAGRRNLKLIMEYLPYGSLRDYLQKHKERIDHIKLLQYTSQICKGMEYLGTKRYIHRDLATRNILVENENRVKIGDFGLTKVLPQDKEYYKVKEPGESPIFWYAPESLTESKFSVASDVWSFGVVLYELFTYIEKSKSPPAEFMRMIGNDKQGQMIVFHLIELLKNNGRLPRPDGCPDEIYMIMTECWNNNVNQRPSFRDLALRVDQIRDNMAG

The mark [1] stands for this setting: 1 μM poly(Glu)4Tyr, 5 μM ATP, 1 nM JAK3, 25° C., read-out: JAK3 inhibition data (Ki).
[2] abbreviates: 15 μM poly(Glu)4Tyr, 12 μM ATP, read-out: JAK2 inhibition data (Ki).

For `CC(=O)N1[C@H](C)CN(c2cc(-n3nc(Nc4ccc(NC(=O)O[C@H]5C[C@H](C)CC[C@H]5C(C)C)cc4)nc3N)ncn2)C[C@@H]1C` [Compound 82], the inhibitory constant (Ki) was 50 to 500 nM at JAK3 (setting [1]) and under 50 nM at JAK-2 enzyme (setting [2]).
With `CCN(CC)c1ccc(Nc2nc(N)n(-c3cc(N4CCCN(C(C)=O)CC4)ncn3)n2)cc1` [Compound 12], the Ki at JAK3 (setting [1]) and on JAK-2 enzyme (setting [2]) was under 50 nM each time.
`CCNC(=O)Nc1ccc(Nc2nc(N)n(-c3cc(N4C[C@@H](C)N(C(C)=O)[C@@H](C)C4)ncn3)n2)cc1` [Compound 67]: the Ki on JAK3 (setting [1]) and on JAK-2 enzyme (setting [2]) was under 50 nM throughout.
With `CC(=O)N1CCCN(c2cc(-n3nc(Nc4ccc(N5CCN(C(=O)C(C)(C)C)CC5)cc4)nc3N)ncn2)CC1` [Compound 36], the Ki on JAK3 (setting [1]) and at JAK-2 enzyme (setting [2]) was under 50 nM each time.
`CC(=O)N1CCCN(c2cc(-n3nc(Nc4ccc(N5CCNCC5)cc4)nc3N)ncn2)CC1` [Compound 42]: the Ki on JAK3 (setting [1]) and on JAK-2 enzyme (setting [2]) was under 50 nM each time.
As for `CCS(=O)(=O)N1CCCN(c2cc(-n3nc(Nc4ccc(N5CCN(C(=O)OC(C)C)CC5)cc4)nc3N)ccn2)CC1` [Compound 169], the Ki at JAK3 (setting [1]) and on JAK-2 enzyme (setting [2]) was 50 to 500 nM throughout.
`CC(=O)N1CCCN(c2cc(-n3nc(Nc4ccc(NC(=O)OC(C)(C)C)cc4)nc3N)ncn2)CC1` [Compound 21]: the Ki at JAK3 (setting [1]) and at JAK-2 enzyme (setting [2]) was under 50 nM in each case.
As to `CC(=O)N1CCCN(c2cc(-n3nc(Nc4ccc(N5CCN(C(=O)OC(C)(C)C)CC5)cc4)nc3N)ncn2)CC1` [Compound 34], the Ki on JAK3 (setting [1]) and on JAK-2 enzyme (setting [2]) was under 50 nM in each case.
In the case of `CC(=O)N1CCCN(c2cc(-n3nc(Nc4ccc(NC(=O)OCC(C)(C)C)cc4)nc3N)ccn2)CC1` [Compound 176], the Ki at JAK3 (setting [1]) and at JAK-2 enzyme (setting [2]) was 50 to 500 nM in each case.
For `CCOC(=O)N1CCN(c2ccc(Nc3nc(N)n(-c4cc(N5CCCN(S(C)(=O)=O)CC5)ncn4)n3)cc2)CC1` [Compound 144], the Ki on JAK3 (setting [1]) and at JAK-2 enzyme (setting [2]) was 50 to 500 nM in each case.
Regarding `CCOC(=O)N1CCN(c2ccc(Nc3nc(N)n(-c4cc(N5CCC6CCC(C5)N6C)ncn4)n3)cc2)CC1` (centres unmarked) [Compound 166], the Ki on JAK3 (setting [1]) and on JAK-2 enzyme (setting [2]) was under 50 nM in each case.
Regarding `CC(=O)N1[C@H](C)CN(c2cc(-n3nc(Nc4ccc(NC(=O)Nc5ccc(C(F)(F)F)cc5)cc4)nc3N)ncn2)C[C@@H]1C` [Compound 74], the Ki at JAK3 (setting [1]) and at JAK-2 enzyme (setting [2]) was under 50 nM in each case.
`CC(=O)N1CCCN(c2cc(-n3nc(Nc4ccc(NC(=O)OCC(C)(C)C)cc4)nc3N)ncn2)CC1` [Compound 95]: the Ki on JAK3 (setting [1]) and on JAK-2 enzyme (setting [2]) was under 50 nM each time.
As to `CCOC(=O)N1CCN(c2ccc(Nc3nc(N)n(-c4ccnc(N5CCCN(C(=O)OC(C)C)CC5)c4)n3)cc2)CC1` [Compound 151], the Ki at JAK3 (setting [1]) and at JAK-2 enzyme (setting [2]) was 50 to 500 nM each time.
As to `CC(=O)N1[C@H](C)CN(c2cc(-n3nc(Nc4ccc(NC(=O)OCC(C)(C)C)cc4)nc3N)ccn2)C[C@@H]1C` [Compound 104], the Ki at JAK3 (setting [1]) and at JAK-2 enzyme (setting [2]) was under 50 nM in each case.
As to `CC(=O)N1CCCN(c2cc(-n3nc(Nc4ccc(NC(=O)O[C@@H]5C[C@@H](C)CC[C@@H]5C(C)C)cc4)nc3N)ncn2)CC1` [Compound 98], the inhibition constant (Ki) on JAK3 (setting [1]) and at JAK-2 enzyme (setting [2]) was 50 to 500 nM each time.
In the case of `CC(=O)N1[C@H](C)CN(c2cc(-n3nc(Nc4ccc(NC(=O)CC(C)C)cc4)nc3N)ccn2)C[C@@H]1C` [Compound 111], the Ki on JAK3 (setting [1]) and on JAK-2 enzyme (setting [2]) was under 50 nM each time.
On to `CC(=O)N1CCCN(c2cc(-n3nc(Nc4ccc(N5CCN(C(=O)OCC(C)C)CC5)cc4)nc3N)ncn2)CC1` [Compound 50], for which the Ki on JAK3 (setting [1]) and at JAK-2 enzyme (setting [2]) was under 50 nM in each case.
Consider `CC(=O)N1[C@H](C)CN(c2cc(-n3nc(Nc4ccc(NC(=O)OC(C)(C)C)cc4)nc3N)ccn2)C[C@@H]1C` [Compound 109], for which the Ki at JAK3 (setting [1]) and on JAK-2 enzyme (setting [2]) was under 50 nM throughout.
For `CC(=O)N1CCCN(c2cc(-n3nc(Nc4ccc(NC(=O)O[C@H]5C[C@H](C)CC[C@H]5C(C)C)cc4)nc3N)ncn2)CC1` [Compound 97], the Ki on JAK3 (setting [1]) and on JAK-2 enzyme (setting [2]) was 50 to 500 nM in each case.
For `CC(=O)N1[C@H](C)CN(c2cc(-n3nc(Nc4ccc(NC(=O)CCC(C)C)cc4)nc3N)ccn2)C[C@@H]1C` [Compound 110], the Ki at JAK3 (setting [1]) and at JAK-2 enzyme (setting [2]) was under 50 nM each time.
With `CC(=O)N1CCCN(c2cc(-n3nc(Nc4ccc(N(C)C(=O)Oc5ccc(C)cc5)cc4)nc3N)ncn2)CC1` [Compound 133], the Ki at JAK3 and at JAK-2 enzyme was under 50 nM each time.
Regarding `CCCOC(=O)N1CCN(c2ccc(Nc3nc(N)n(-c4ccnc(N5CCCN(C(=O)OC)CC5)c4)n3)cc2)CC1` [Compound 158], the Ki on JAK3 (setting [1]) and on JAK-2 enzyme (setting [2]) was 50 to 500 nM throughout.
Take `COC(=O)Nc1ccc(Nc2nc(N)n(-c3ccnc(N4CCCN(C(C)=O)CC4)c3)n2)cc1` [Compound 170]: the inhibitory constant (Ki) at JAK3 (setting [1]) and at JAK-2 enzyme (setting [2]) was 50 to 500 nM throughout.
For the compound `CCOC(=O)N1CCN(c2ccc(Nc3nc(N)n(-c4ccnc(N5C[C@@H](C)N(C(C)=O)[C@@H](C)C5)c4)n3)cc2)CC1` [Compound 113], the Ki at JAK3 (setting [1]) and at JAK-2 enzyme (setting [2]) was under 50 nM each time.
Consider `CNc1ccc(Nc2nc(N)n(-c3cc(N4CCCN(C(C)=O)CC4)ncn3)n2)cc1` [Compound 117], for which the Ki on JAK3 (setting [1]) and on JAK-2 enzyme (setting [2]) was under 50 nM in each case.
For the compound `CCCOC(=O)Nc1ccc(Nc2nc(N)n(-c3ccnc(N4CCCN(C(C)=O)CC4)c3)n2)cc1` [Compound 172], the values for the Ki at JAK3 (setting [1]) and at JAK-2 enzyme (setting [2]) were under 50 nM and 50 to 500 nM, respectively.
Taken in the same sequence, the figures for `CC(=O)N1CCCN(c2cc(-n3nc(Nc4ccc(N5CCOCC5)cc4)nc3N)ccn2)CC1` [Compound 1] were under 50 nM and 50 to 500 nM.

One may read the Ki as a dissociation constant, usually derived from enzyme kinetics or from competition with a known ligand.
